The results in this text go back to US20130136719A1, “COMPOUNDS AND METHODS FOR THE TREATMENT OR PREVENTION OF FLAVIVIRUS INFECTIONS” (VERTEX PHARMACEUTICALS INCORPORATED, priority 2009, published 2013).

Like-named read-outs stand apart in the source and are kept apart here.

For series [1], the target named is HCV RNA-dependent RNA polymerase (NS5B protein) (Hepatitis C virus genotype 1b, UniProt P26663). Kind of series: biochemical. More on the design: species or system HCV-Bk strain.
Series [2] deals with HCV replicon (genotype 1b) in Huh7 cell line ET. The series can be described thus: microbe, parasite or virus in culture. The class given is cell-based, HCV genotype 1b. To be noted: read-out: HCV-Replicon-Luci-Et-1b_IC50. On the technique in general: A replicon is a self-replicating genome or part of one, used to study replication in cells.
Series [3] is described as follows: [3H]Thymidine incorporation assay (CC50). To be noted: human.
The subject of series [4] is HCV sub-genomic replicon of genotype 1a in cell line W11.8. Kind of series: microbe, parasite or virus in culture. To be noted: Hepatitis C virus, W11.8, 96 h, read-out: HCV-Replicon-ELISA-1a IC50. The class given is cell-based, HCV genotype 1a.

Sequence of HCV RNA-dependent RNA polymerase (NS5B protein) (P26663 2420-2989 limits assumed): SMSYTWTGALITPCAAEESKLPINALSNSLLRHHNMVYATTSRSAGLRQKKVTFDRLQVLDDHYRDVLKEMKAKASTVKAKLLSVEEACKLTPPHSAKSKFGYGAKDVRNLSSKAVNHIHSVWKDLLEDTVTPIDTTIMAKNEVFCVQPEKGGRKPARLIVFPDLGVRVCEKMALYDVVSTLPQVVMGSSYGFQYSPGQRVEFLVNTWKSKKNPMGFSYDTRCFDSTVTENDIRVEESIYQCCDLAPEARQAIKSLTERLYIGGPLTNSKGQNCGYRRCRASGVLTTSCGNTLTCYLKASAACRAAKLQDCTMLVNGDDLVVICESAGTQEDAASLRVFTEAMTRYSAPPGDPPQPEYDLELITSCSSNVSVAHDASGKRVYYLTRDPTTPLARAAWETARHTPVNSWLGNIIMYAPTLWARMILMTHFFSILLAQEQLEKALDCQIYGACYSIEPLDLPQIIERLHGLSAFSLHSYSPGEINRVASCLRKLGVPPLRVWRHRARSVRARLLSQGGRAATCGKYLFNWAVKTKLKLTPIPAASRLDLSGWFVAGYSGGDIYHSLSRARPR

`CC(C)(C)C#Cc1cc(N(C(=O)c2ccc(Cl)cc2F)[C@H]2CC[C@H](O)CC2)c(C(=O)O)s1` [Compound 17, 3-[(4-Chloro-2-fluoro-benzoyl)-(trans-4-hydroxy-cyclohexyl)-amino]-5-(3,3-dimethyl-but-1-ynyl)-thiophene-2-carboxylic acid]: the IC50 in series [1] was 1000 to 10000 nM; in series [2] (Hepatitis C virus, Huh-7, 96 h), below 100 nM.

On to `Cc1ccc(C(=O)N(c2cc(C#CC(C)(C)C)sc2C(=O)O)[C@H]2CC[C@H](O)CC2)c(Cl)c1` [Compound 53, 3-[(2-Chloro-4-methyl-benzoyl)-(trans-4-hydroxy-cyclohexyl)-amino]-5-(3,3-dimethyl-but-1-ynyl)-thiophene-2-carboxylic acid], for which, in series [3], the CC50 at 72 h fell in the range of 10000 to 100000 nM. In series [1], this compound showed an IC50 of 1000 to 10000 nM.

`Cc1ccc(C(=O)N(c2cc(C#CC(C)(C)C)sc2C(=O)O)[C@H]2CC[C@H](O)CC2)cc1` [Compound 19, 5-(3,3-Dimethyl-but-1-ynyl)-3-[(trans-4-hydroxy-cyclohexyl)-(4-methyl-benzoyl)-amino]-thiophene-2-carboxylic acid] had an IC50 in series [1] of 1000 to 10000 nM.

`Cc1ccc(C(=O)N(c2cc(C#CC(C)(C)C)sc2C(=O)O)[C@H]2CC[C@H](O)CC2)c(F)c1` [Compound 54, 5-(3,3-Dimethyl-but-1-ynyl)-3-[(2-fluoro-4-methyl-benzoyl)-(trans-4-hydroxy-cyclohexyl)-amino]-thiophene-2-carboxylic acid] came in with an IC50 in series [1] of 1000 to 10000 nM.

Regarding `CC(C)N(C(=O)c1ccc(Cl)cc1Cl)c1cc(C#CC(C)(C)C)sc1C(=O)O` [Compound 96, Sodium 3-[(2,4-dichloro-benzoyl)-isopropyl-amino]-5-(3,3-dimethyl-but-1-ynyl)-thiophene-2-carboxylate], the CC50 at 72 h in series [3] was 10000 to 100000 nM. In addition, the IC50 is 100 to 1000 nM in series [1] and below 100 nM in series [2] (Hepatitis C virus, Huh-7, 96 h).

`CC(C)(C)C#Cc1cc(N(C(=O)c2ccc(F)cc2)[C@H]2CC[C@H](O)CC2)c(C(=O)O)s1` [Compound 51, 5-(3,3-Dimethyl-but-1-ynyl)-3-[(4-fluoro-benzoyl)-(trans-4-hydroxy-cyclohexyl)-amino]-thiophene-2-carboxylic acid]: the CC50 at 72 h in series [3] was above 100000 nM. This compound had an IC50 in series [1] of 1000 to 10000 nM.

Consider `Cc1ccc(C(=O)N(c2cc(C#CC(C)(C)C)sc2C(=O)O)[C@H]2CC[C@H](O)CC2)cc1F` [Compound 24, 5-(3,3-Dimethyl-but-1-ynyl)-3-[(3-fluoro-4-methyl-benzoyl)-(trans-4-hydroxy-cyclohexyl)-amino]-thiophene-2-carboxylic acid], for which the CC50 at 72 h in series [3] was 10000 to 100000 nM. The IC50 in series [1] was 1000 to 10000 nM; in series [2] (Hepatitis C virus, Huh-7, 96 h) it was below 100 nM.

In series [3], `COCCN(C(=O)c1ccc(Cl)cc1Cl)c1cc(C#CC(C)(C)C)sc1C(=O)O` [Compound 44, 3-[(2,4-Dichloro-benzoyl)-(2-methoxy-ethyl)-amino]-5-(3,3-dimethyl-but-1-ynyl)-thiophene-2-carboxylic acid] had a CC50 at 72 h of 10000 to 100000 nM. For the same compound, the IC50 in series [1] was 100 to 1000 nM; in series [2] (Hepatitis C virus, Huh-7, 96 h), below 100 nM; in series [4], 100 to 1000 nM.

Consider `CC(C)(C)C#Cc1cc(N(C(=O)c2ccc(C(F)(F)F)cc2)[C@H]2CC[C@H](O)CC2)c(C(=O)O)s1` [Compound 22], for which the IC50 in series [1] was in the range of 1000 to 10000 nM.

As for `CC(C)(C)C#Cc1cc(N(CCO)C(=O)c2ccc(Cl)cc2Cl)c(C(=O)O)s1` [Compound 97, 3-[(2,4-Dichloro-benzoyl)-(2-hydroxy-ethyl)-amino]-5-(3,3-dimethyl-but-1-ynyl)-thiophene-2-carboxylic acid], the CC50 at 72 h in series [3] was 10000 to 100000 nM. Besides, the IC50 in series [1] lay within 100 to 1000 nM; in series [2] (Hepatitis C virus, Huh-7, 96 h), 100 to 1000 nM.

Take `Cc1ccc(C(=O)N(c2cc(C#CC(C)(C)C)sc2C(=O)O)[C@H]2CC[C@H](O)CC2)c(F)c1F` [Compound 89, 3-[(2,3-Difluoro-4-methyl-benzoyl)-(trans-4-hydroxy-cyclohexyl)-amino]-5-(3,3-dimethyl-but-1-ynyl)-thiophene-2-carboxylic acid]: the CC50 at 72 h in series [3] is 10000 to 100000 nM. This compound displayed an IC50 in series [1] of 1000 to 10000 nM.

Turning to `CC(C)(C)C#Cc1cc(N(C(=O)c2ccc(Cl)cc2Cl)[C@H]2CC[C@H](O)CC2)c(C(=O)O)s1` [Compound 2, 3-[(2,4-Dichloro-benzoyl)-(trans-4-hydroxy-cyclohexyl)-amino]-5-(3,3-dimethyl-but-1-ynyl)-thiophene-2-carboxylic acid], the IC50 was 100 to 1000 nM in series [1] and below 100 nM in series [2] (Hepatitis C virus, Huh-7, 96 h).

In the case of `Cc1ccccc1C(=O)N(c1cc(C#CC(C)(C)C)sc1C(=O)O)[C@H]1CC[C@H](O)CC1` [Compound 88, 5-(3,3-Dimethyl-but-1-ynyl)-3-[(trans-4-hydroxy-cyclohexyl)-(2-methyl-benzoyl)-amino]-thiophene-2-carboxylic acid], in series [3], the CC50 at 72 h is above 100000 nM. The compound further registered an IC50 in series [1] of 1000 to 10000 nM.

Consider `CC(C)N(C(=O)c1ccc(Cl)cc1Cl)c1cc(C#CC(C)(C)C)sc1C(=O)O` [Compound 1, 3-[(2,4-Dichloro-benzoyl)-isopropyl-amino]-5-(3,3-dimethyl-but-1-ynyl)-thiophene-2-carboxylic acid], for which the IC50 in series [1] (read-out: HCV Polymerase_1b IC50, recombinant truncated NS5B genotype 1b, poly rA/oligo dT, [3H]UTP SPA) lay in the range of 100 to 1000 nM; in series [2], 100 to 1000 nM.

For the compound `CC(C)(C)C#Cc1cc(N(C(=O)c2ccc(Cl)cc2)[C@H]2CC[C@H](O)CC2)c(C(=O)O)s1` [Compound 16, 3-[(4-Chloro-benzoyl)-(trans-4-hydroxy-cyclohexyl)-amino]-5-(3,3-dimethyl-but-1-ynyl)-thiophene-2-carboxylic acid], the CC50 at 72 h in series [3] lay within 10000 to 100000 nM. Also, the IC50 in series [1] is 100 to 1000 nM.

For `Cc1ccc(C(=O)N(c2cc(C#CC(C)(C)C)sc2C(=O)O)[C@H]2CC[C@H](O)CC2)c(C)c1` [Compound 18, 3-[(2,4-Dimethyl-benzoyl)-(trans-4-hydroxy-cyclohexyl)-amino]-5-(3,3-dimethyl-but-1-ynyl)-thiophene-2-carboxylic acid], the CC50 at 72 h in series [3] is 10000 to 100000 nM. For the same compound, the IC50 in series [1] was 100 to 1000 nM; in series [2] (Hepatitis C virus, Huh-7, 96 h), below 100 nM.

In series [3], `CC(C)(C)C#Cc1cc(N(C(=O)c2ccccc2Cl)[C@H]2CC[C@H](O)CC2)c(C(=O)O)s1` [Compound 87, 3-[(2-Chloro-benzoyl)-(trans-4-hydroxy-cyclohexyl)-amino]-5-(3,3-dimethyl-but-1-ynyl)-thiophene-2-carboxylic acid] had a CC50 at 72 h above 100000 nM. The same compound showed an IC50 in series [1] of 1000 to 10000 nM.

The compound `CC(C)(C)C#Cc1cc(N(C(=O)c2ccc(Cl)cc2Cl)C2CCOCC2)c(C(=O)O)s1` [Compound 26, 3-[(2,4-Dichloro-benzoyl)-(tetrahydro-pyran-4-yl)-amino]-5-(3,3-dimethyl-but-1-ynyl)-thiophene-2-carboxylic acid] came in with a CC50 at 72 h in series [3] of 10000 to 100000 nM. For the same compound, the IC50 was 1000 to 10000 nM in series [1] and below 100 nM in series [2] (Hepatitis C virus, Huh-7, 96 h).

In turn, `CC(C)(C)C#Cc1cc(N(C(=O)c2ccc(Cl)c(F)c2)[C@H]2CC[C@H](O)CC2)c(C(=O)O)s1` [Compound 52, 3-[(4-Chloro-3-fluoro-benzoyl)-(trans-4-hydroxy-cyclohexyl)-amino]-5-(3,3-dimethyl-but-1-ynyl)-thiophene-2-carboxylic acid] came in with a CC50 at 72 h in series [3] of 10000 to 100000 nM. The compound also came in with an IC50 in series [1] of 1000 to 10000 nM.
